{"source": "patent US20010012854A1", "about": "“MULTICATALYTIC PROTEASE INHIBITORS FOR USE AS ANTI-TUMOR AGENTS” (priority 1997, published 2001)", "key": {"[1]": {"test_system": "p21 and p27 in SV-40 transformed WI-38 fibroblasts", "assay": "Western blot of p21 and p27 levels in SV-40 transformed WI-38 fibroblasts", "format": "cell-based, human", "conditions": "SV-40 transformed WI-38, 10 μM, 22 hours", "method": "(§1) e. Whole cell extracts and western blot assay. To prepare whole cell extracts, cells were washed with PBS, and homogenized in lysis buffer (50 mM Tris, pH 8.0, 5 mM EDTA, 150 mM NaCl, 0.5% Nonidet P-40, 0.5 mM PMSF and 0.5 mM dithiothreitol). Following 30 min rocking at 4° C., the lysates were centrifuged and the supernatants were collected as whole cell extracts. The protein samples were then analyzed by sodium dodecyl sulfate-6% polyacrylamide gel electrophoresis (20-60 μg protein per lane) followed by the enhanced chemiluminescence Western blot assay using specific antibodies to CPP32, PARP, p21, p27 or RB.\nThe accumulation of p21 and p27 following treatment with Compound A was also evaluated in SV-40 transformed and normal WI-38 fibroblasts."}, "[2]": {"test_system": "human leukemia HL-60 cells", "assay": "Apoptosis in HL-60 cells (DNA fragmentation, PARP cleavage)", "format": "cell-based", "conditions": "30 μM, 3-4 h", "method": "d. Flow cytometry nuclear staining and DNA fragmentation assays. DNA content analysis using flow cytometry was performed as described previously (Nicoletti, I., et al. J. Immunol. Methods 139:271-279, 1992). To assay nuclear morphology, cells were washed with PBS, fixed with 70% ethanol for 1 h, and stained with Hoechst 33258 (1 mM) for 30 min. The nuclear morphology of cells was visualized by fluorescence microscope (OLYMPUS BH2). DNA fragmentation was assayed as described previously (Grant, S., et al. Cancer Res. 52:6270-6278, 1992).\nas §1\nExample 1 was designed to determine if MCP is involved in the survival signaling pathway(s) and if inhibition of MCP activity induces apoptosis. Human Jurkat T cells were treated with 30 μM Compound A for 4 h. […]"}}}
{"smiles": "CC(C)C[C@@H](C=O)NC(=O)[C@@H](CCCNC(=N)N[N+](=O)[O-])NC(=O)C(CCCCCCCCN1C(=O)c2ccccc2C1=O)C1CCCC1", "note": "(some centres unmarked) [Compound A]", "values": [{"measurement": "Elevation of p27 levels", "setting": "[1]", "result": 8, "unit": "fold"}, {"measurement": "Cleavage of PARP", "setting": "[2]", "result": "complete cleavage of PARP"}]}
